Laboratory results as given in US20120071506A1, “METHODS FOR TREATING CNS DISORDERS WITH BICYCLO-SUBSTITUTED 2-IMIDAZOLINE AND 2-IMIDAZOLES” (priority 2006, published 2012).
Counter-ions that a name gives are not always drawn. Each block holds one compound with its values, some of them ahead of it.

Tests used:
[1] = target: T1, mouse TAAR1 (Mus musculus, UniProt Q923Y8); assay: Radioligand binding with [3H]-rac-2-(1,2,3,4-tetrahydro-1-naphthyl)-2-imidazoline on membranes of HEK293 cells stably expressing TAAR1; details: for Ki: mouse TAAR1, competition with [3H]-rac-2-(1,2,3,4-tetrahydro-1-naphthyl)-2-imidazoline at 60 nM, 4° C., 30 min
T1 construct: expressed in transfected cells; host or cells: HEK293 cells (ATCC # CRL-1573), stably transfected with pIRESneo2 expression plasmid; membrane preparation
T1 sequence (Q923Y8 whole entry): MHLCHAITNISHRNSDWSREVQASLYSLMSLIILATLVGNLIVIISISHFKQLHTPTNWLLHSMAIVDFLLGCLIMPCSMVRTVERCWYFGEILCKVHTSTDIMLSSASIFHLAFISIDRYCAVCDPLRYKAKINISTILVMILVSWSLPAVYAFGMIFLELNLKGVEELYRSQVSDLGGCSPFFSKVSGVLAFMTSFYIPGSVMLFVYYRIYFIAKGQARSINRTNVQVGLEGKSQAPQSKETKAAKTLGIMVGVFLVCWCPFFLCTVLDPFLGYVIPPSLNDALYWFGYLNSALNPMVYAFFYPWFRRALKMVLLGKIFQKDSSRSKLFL
Protocol: For the construction of expression plasmids the coding sequences of human, rat and mouse TAAR 1 were amplified from genomic DNA essentially as described by Lindemann et al.. The Expand High Fidelity PCR System (Roche Diagnostics) was used with 1.5 mM Mg^2+ and purified PCR products were cloned into pCR2.1-TOPO cloning vector (Invitrogen) following the instructions of the manufacturer. PCR products were subcloned into the pIRESneo2 vector (BD Clontech, Palo Alto, Calif.), and expression vectors were sequence verified before introduction in cell lines.
HEK293 cells (ATCC # CRL-1573) were cultured essentially as described Lindemann et al. (2005). For the generation of stably transfected cell lines HEK293 cells were transfected with the pIRESneo2 expression plasmids containing the TAAR coding sequences (described above) with Lipofectamine 2000 (Invitrogen) according to the instructions of the manufacturer, and 24 hrs post transfection the culture medium was supplemented with 1 mg/ml G418 (Sigma, Buchs, Switzerland). After a culture period of about 10 d clones were isolated, expanded and tested for responsiveness to trace amines (all compounds purchased from Sigma) with the cAMP Biotrak Enzyme immunoassay (EIA) System (Amersham) following the non-acetylation EIA procedure provided by the manufacturer.
Cells at confluence were rinsed with ice-cold phosphate buffered saline without Ca^2+ and Mg^2+ containing 10 mM EDTA and pelleted by centrifugation at 1000 rpm for 5 min at 4° C. The pellet was then washed twice with ice-cold phosphate buffered saline and cell pellet was frozen immediately by immersion in liquid nitrogen and stored until use at −80° C. Cell pellet was then suspended in 20 ml HEPES-NaOH (20 mM), pH 7.4 containing 10 mM EDTA, and homogenized with a Polytron (PT 3000, Kinematica) at 10,000 rpm for 10 s. The homogenate was centrifuged at 48,000×g for 30 min at 4° C. and the pellet resuspended in 20 ml HEPES-NaOH (20 mM), pH 7.4 containing 0.1 mM EDTA (buffer A), and homogenized with a Polytron at 10,000 rpm for 10 s. The homogenate was then centrifuged at 48,000×g for 30 min at 4° C. and the pellet resuspended in 20 ml buffer A, and homogenized with a Polytron at 10,000 rpm for 10 s. Protein concentration was determined by the method of Pierce (Rockford, Ill.). The homogenate was then centrifuged at 48,000×g for 10 min at 4° C., resuspended in HEPES-NaOH (20 mM), pH 7.0 including MgCl2 (10 mM) and […] homogenized with a Polytron at 10,000 rpm for 10 s.
Binding assay was performed at 4° C. in a final volume of 1 ml, and with an incubation time of 30 min. The radioligand [^3H]-rac-2-(1,2,3,4-tetrahydro-1-naphthyl)-2-imidazoline was used at a concentration equal to the calculated Kd value of 60 nM to give a bound at around 0.1% of the total added radioligand concentration, and a specific binding which represented approximately 70-80% of the total binding. Non-specific binding was defined as the amount of [^3H]-rac-2-(1,2,3,4-tetrahydro-1-naphthyl)-2-imidazoline bound in the presence of the appropriate unlabelled ligand (10 μM). Competing ligands were tested in a wide range of concentrations (10 pM-30 μM). […] Each experiment was performed in duplicate. All incubations were terminated by rapid filtration through UniFilter-96 plates (Packard Instrument Company) and glass filter GF/C, pre-soaked for at least 2 h in polyethylenimine 0.3%, and using a Filtermate 96 Cell Harvester (Packard Instrument Company). The tubes and filters were then washed 3 times with 1 ml aliquots of cold buffer B. Filters were not dried and soaked in Ultima gold (45 μl/well, Packard Instrument Company) and bound radioactivity was counted by a TopCount Microplate Scintillation Counter (Packard Instrument Company).

SMILES: Cc1cc(C)c2c(c1)C(C1=NCCN1)CCC2 (racemic) [Example 2, rac-2-(5,7-Dimethyl-1,2,3,4-tetrahydro-naphthalen-1-yl)-4,5-dihydro-1H-imidazole]
Ki [1]: 0.011 µM

SMILES: c1ccc2c(c1)OCCC2c1cnc[nH]1 (racemic) [Example 69, rac-5-Chroman-4-yl-1H-imidazole hydrochloride or tautomer]
Ki [1]: 0.025 µM

SMILES: COc1ccc2c(c1)CCCC2C1=NCCN1 (racemic) [Example 21, rac-2-(6-methoxy-1,2,3,4-tetrahydro-naphthalen-1-yl)-4,5-dihydro-1H-imidazole]
Ki [1]: 0.009 µM

SMILES: Brc1cccc2c1CCCC2C1=NCCN1 (racemic) [Example 1, rac-2-(5-Bromo-1,2,3,4-tetrahydro-naphthalen-1-yl)-4,5-dihydro-1H-imidazole]
Ki [1]: 0.009 µM

melting point: 156 to 158 °C
SMILES: Brc1ccc2c(c1)C(C1=NCCN1)CCC2 (racemic)

SMILES: Fc1ccc2c(c1)C(c1cnc[nH]1)CCO2 (racemic) [Example 62, rac-5-(6-Fluoro-chroman-4-yl)-1H-imidazole or tautomer]
Ki [1]: 0.004 µM

SMILES: c1ccc2c(c1)OCCC2C1=NCCN1 (racemic) [Example 11, rac-2-Chroman-4-yl-4,5-dihydro-1H-imidazole]
Ki [1]: 0.017 µM

SMILES: Cc1cccc2c1C(c1cnc[nH]1)CCO2 (racemic) [Example 66, rac-5-(5-Methyl-chroman-4-yl)-1H-imidazole or tautomer]
Ki [1]: 0.037 µM

SMILES: Clc1cccc2c1OCC=C2c1cnc[nH]1 [Example 63, 5-(8-Chloro-2H-chromen-4-yl)-1H-imidazole or tautomer]
Ki [1]: 0.02 µM

SMILES: Clc1cccc2c1CCCC2C1=NCCN1 (racemic) [Example 19, rac-2-(5-chloro-1,2,3,4-tetrahydro-naphthalen-1-yl)-4,5-dihydro-1H-imidazole]
Ki [1]: 0.013 µM

SMILES: COc1ccc2c(c1)C(C1=NCCN1)CCC2 (racemic) [Example 20, rac-2-(7-Methoxy-1,2,3,4-tetrahydro-naphthalen-1-yl)-4,5-dihydro-1H-imidazole]
Ki [1]: 0.051 µM

SMILES: COc1cccc2c1CCCC2C1=NCCN1 (racemic) [Example 22, rac-2-(5-methoxy-1,2,3,4-tetrahydro-naphthalen-1-yl)-4,5-dihydro-1H-imidazole]
Ki [1]: 0.025 µM

SMILES: Fc1cc(Cl)cc2c1CCCC2C1=NCCN1 (racemic) [Example 3, rac-2-(7-Chloro-5-fluoro-1,2,3,4-tetrahydro-naphthalen-1-yl)-4,5-dihydro-1H-imidazole]
Ki [1]: 0.054 µM

Ki [1]: 0.053 µM
SMILES: Clc1cc(Cl)c2c(c1)C(c1ncc[nH]1)CCO2 (racemic) [Example 36, rac-2-(6,8-Dichloro-chroman-4-yl)-1H-imidazole]

SMILES: Cc1ccc2c(c1)OCCC2c1cnc[nH]1 (racemic) [Example 60, rac-5-(7-Methyl-chroman-4-yl)-1H-imidazole or tautomer]
Ki [1]: 0.008 µM

SMILES: Fc1cccc2c1C(c1cnc[nH]1)CCO2 (racemic) [Example 67, rac-5-(5-Fluoro-chroman-4-yl)-1H-imidazole or tautomer]
Ki [1]: 0.032 µM

SMILES: c1ccc2c(c1)CCCC2C1=NCCN1 (racemic) [[^3H]-rac-2-(1,2,3,4-tetrahydro-1-naphthyl)-2-imidazoline, reference compound]
Kd ([1]; radioligand used at a concentration equal to its calculated Kd, species of TAAR1 not given): 60 nM

SMILES: Clc1ccc2c(c1)C(c1cnc[nH]1)=CCO2 [Example 64, 5-(6-Chloro-2H-chromen-4-yl)-1H-imidazole or tautomer]
Ki [1]: 0.016 µM

SMILES: Cc1cc(C)c2c(c1)C(c1ncc[nH]1)CCC2 (racemic) [Example 10, rac-2-(5,7-Dimethyl-1,2,3,4-tetrahydro-naphthalen-1-yl)-1H-imidazole]
melting point: 161 to 163 °C
Ki [1]: 0.013 µM

SMILES: Clc1ccc2c(c1)CCCC2C1=NCCN1 (racemic) [Example 18, rac-2-(6-chloro-1,2,3,4-tetrahydro-naphthalen-1-yl)-4,5-dihydro-1H-imidazole]
Ki [1]: 0.058 µM

Ki [1]: 0.054 µM
SMILES: c1ccc2c(c1)OCCC2c1ncc[nH]1 (racemic) [Example 12, rac-2-Chroman-4-yl-1H-imidazole]

SMILES: C1=C(c2cnc[nH]2)c2ccccc2CC1 [Example 55]
Ki [1]: 0.011 µM

Ki [1]: 0.061 µM
SMILES: c1ccc2c(c1)NCCC2c1ncc[nH]1 (racemic) [Example 41, rac-4-(1H-Imidazol-2-yl)-1,2,3,4-tetrahydro-quinoline]

SMILES: Fc1ccc2c(c1)OCCC2c1cnc[nH]1 (racemic) [Example 65, rac-5-(7-Fluoro-chroman-4-yl)-1H-imidazole or tautomer]
Ki [1]: 0.004 µM

SMILES: c1ccc2c(c1)CCCC2c1c[nH]cn1 (racemic) [Example 56, rac-4-(1,2,3,4-Tetrahydro-naphthalen-1-yl)-1H-imidazole]
Ki [1]: 0.006 µM
